Here are results for 10 molecules from publication PMC6599891 (Journal of molecular biology, 2019).

Where a chain is given by its changes, count along the chain named. Numbers in names are those of the source. Where two headings read alike, the source gives them in different places.

In general, Kd refers to a measure of binding affinity in units of concentration. High values mean lower affinity, low ones higher affinity.

For data set [1], the target named is T1, EmrE (Escherichia coli, UniProt P23895, S64V). The data set can be described thus: biochemical.
The target of data set [2] is EmrE (Escherichia coli, UniProt P23895). Description: [3H]-TPP+ saturation binding, purified protein in DDM.
In data set [3] the target is EmrE (Escherichia coli, UniProt P23895, I101G). The data set can be described thus: biochemical.
Data set [4] concerns the target EmrE (Escherichia coli, UniProt P23895, G90V). Description: biochemical.
Data set [5] has as its target EmrE (Escherichia coli, UniProt P23895, N102V). Description: biochemical.
Data set [6] concerns the target T1, EmrE. The data set can be described thus: biochemical. This is another data set of the same source.
For data set [7], the target named is EmrE (Escherichia coli, UniProt P23895, A59L). Description: biochemical.
Data set [8] addresses EmrE (Escherichia coli, UniProt P23895, N102A). Description: biochemical.
Data set [9] addresses EmrE (Escherichia coli, UniProt P23895, M21G). The data set can be described thus: biochemical.
Data set [10] deals with the molecule itself. Description: 1H-15N TROSY-HSQC NMR (peak doubling of the asymmetric homodimer).

On EmrE [1], `CC[P+](c1ccccc1)(c1ccccc1)c1ccccc1` [EtTPP^+] displayed a Kd of 11400 ± 100 nM. With `C[P+](c1ccccc1)(c1ccccc1)c1ccccc1` [MeTPP^+], binding on EmrE [1] was put at a Kd of 60000 ± 10000 nM.

Take `c1ccc([P+](c2ccccc2)(c2ccccc2)c2ccccc2)cc1` [TPP^+]: the Kd on EmrE [2] came out at 0.8 ± 0.1 nM; on EmrE [3], 2.6 ± 1.3 nM; on EmrE [4], 5.3 ± 0.6 nM; on EmrE [5] it was 1.2 ± 0.2 nM; on EmrE [6] it was 1 ± 0.6 nM; at EmrE [7], 23.4 ± 2.4 nM. The dissociation constant (Kd) on EmrE [8] worked out at 2.3 ± 0.4 nM; at EmrE [9] it was 4 ± 0.7 nM.

B1: wild type EmrE (natural protein)
chain: MNPYIYLGGAILAEVIGTTLMKFSEGFTRLWPSVGTIICYCASFWLLAQTLAYIPTGIAYAIWSGVGIVLISLLSWGFFGQRLDLPAIIGMMLICAGVLIINLLSRSTPH
Consider B1, for which the binding result in data set [10] is listed as “binds”.

B2: EmrE N102V (natural protein)
chain: B1 chain with N102V
For the molecule B2, the binding result in [10] is on record as “binds”.

B3: EmrE N102A (natural protein)
chain: B1 chain with N102A
Turning to B3, the binding result in data set [10] is given as “binds”.

B4: EmrE I101G (natural protein)
chain: B1 chain with I101G
On to B4, for which the binding result in data set [10] is “binds”.

B5: EmrE M21G (natural protein)
chain: B1 chain with M21G
Consider B5, for which the binding result in data set [10] is “binds”.

B6: EmrE A59L (natural protein)
chain: B1 chain with A59L
In the case of B6, the binding result in [10] was “binds”.

B7: S64V-EmrE (natural protein)
chain: B1 chain with S64V
Regarding B7, in data set [10], the binding result is “binds”.
